Data as given in patent US6974824B2, “Kappa opioid receptor ligands” (Research Triangle Institute, priority 2001, dated 2005).
Read-outs that look alike come from different tables or passages of the source.

How the values were obtained:
delta opioid receptor [1] = molecular target: T1, delta opioid receptor (Cavia porcellus, UniProt A0A286XTF2); conditions: read-out: Apparent Functional Ki (nM ± SD) δ DADLE; [35S]GTP-γ-S, guinea pig caudate, SNC-80-stimulated (footnote b)
mu opioid receptor [2] = molecular target: mu opioid receptor (Cavia porcellus, UniProt A0ACM8Q262); experiment: Inhibition of DAMGO-stimulated [35S]GTP-γ-S binding in guinea pig caudate; type: biochemical; conditions: read-out: Apparent Functional Ki (nM ± SD) μ DAMGO
delta opioid receptor [3] = molecular target: delta opioid receptor (UniProt P33533); experiment: Radioligand competitive binding, [3H]DADLE
[4] = molecular target: cloned human kappa opioid receptor (Homo sapiens, UniProt P41145); experiment: Inhibition of U69,593-stimulated [35S]GTP-γ-S binding in cloned human opioid receptors; conditions: cloned human functional assay versus binding assay
mu opioid receptor [5] = molecular target: mu opioid receptor (UniProt P33535); experiment: Radioligand competitive binding, [3H]DAMGO; conditions: read-out: K1 (nM ± SD) μ [3H]DAMGO
kappa opioid receptor [6] = molecular target: T2, kappa opioid receptor (Cavia porcellus, UniProt P41144); experiment: Inhibition of U69,593-stimulated [35S]GTP-γ-S binding in guinea pig caudate
delta opioid receptor [7] = molecular target: T1, delta opioid receptor; experiment: biochemical
kappa opioid receptor [8] = molecular target: T2, kappa opioid receptor; experiment: Radioligand competitive binding, [3H]U69,593; conditions: for Ki: read-out: K1 (nM ± SD) κ [3H]U69,593, radioligand binding, [3H]U69,593
kappa opioid receptor [9] = experiment: Radioligand competitive binding, [3H]U69,593; conditions: ratio of binding Ki values, Table 1
[10] = read-out: K1 (nM ± SD) δ [3H]DADLE; radioligand binding, [3H]DADLE
[11] = radioligand binding, [3H]DADLE; read-out: K1 (nM ± SD) δ [3H]DADLE

SMILES: Oc1ccc2c3c1O[C@H]1c4[nH]c5c(c4C[C@@]4(O)[C@@H](C2)N(CC2CC2)CC[C@]314)C[C@@]1(O)[C@H]2Cc3ccc(O)c4c3[C@@]1(CCN2CC1CC1)[C@H]5O4 [6, nor-BNI, nor-binaltorphimine, reference compound]
- Ki (delta opioid receptor [1]): 10.2 nM
- Ki (mu opioid receptor [2]): 16.7 nM
- Ki (delta opioid receptor [3]; [10]): 86 nM

SMILES: CC(C)[C@@H](CN1CC[C@@](C)(c2cccc(O)c2)[C@@H](C)C1)NC(=O)[C@H]1Cc2ccc(O)cc2CN1 [Compound 14, (3R)-7-Hydroxy-N-((1S)-1-{[(3R,4R)-4-(3-hydroxyphenyl)-3,4-dimethyl-1-piperidinyl]methyl}-2-methylpropyl)-1,2,3,4-tetrahydro-3-isoquinolinecarboxamide]
- improvement in kappa receptor Ki compared with the binding assay [4]: 53 fold
- Ki (mu opioid receptor [5]): 3.73 ± 0.17 nM
- Ki (kappa opioid receptor [6]): 0.02 nM
- Ki (delta opioid receptor [7]): > 300 nM
- Ki (mu opioid receptor [2]): 2.16 ± 0.75 nM
- Ki (delta opioid receptor [3]; [11]): 301 ± 50 nM

SMILES: CC(C)[C@@H](CN1CC[C@@](C)(c2cccc(O)c2)[C@@H](C)C1)NC(=O)[C@@H]1Cc2ccc(O)cc2CN1 [Compound 15, (3S)-7-Hydroxy-N-((1S)-1-{[(3R,4R)-4-(3-hydroxyphenyl)-3,4-dimethyl-1-piperidinyl]methyl}-2-methylpropyl)-1,2,3,4-tetrahydro-3-isoquinolinecarboxamide]
- Ki (mu opioid receptor [5]): 596 ± 29 nM
- Ki (kappa opioid receptor [8]): 9.8 ± 1.6 nM
- Ki (delta opioid receptor [3]; [11]): > 4900 nM

SMILES: CC(C)[C@@H](CN1CC[C@@](C)(c2cccc(O)c2)[C@@H](C)C1)NC(=O)[C@H]1Cc2ccccc2CN1 [Compound 16, (3R)-N-((1S)-1-{[(3R,4R)-4-(3-Hydroxyphenyl)-3,4-dimethyl-1-piperidinyl]methyl}-2-methylpropyl)-1,2,3,4-tetrahydro-3-isoquinolinecarboxamide]
- Ki (mu opioid receptor [5]): 775 ± 75 nM
- δ/κ (kappa opioid receptor [9]): >2333
- μ/κ (kappa opioid receptor [9]): 369
- Ki (kappa opioid receptor [8]): 2.1 nM
- Ki (delta opioid receptor [3]; [10]): > 4900 nM

SMILES: CC(C)[C@@H](CN1CC[C@@](C)(c2cccc(O)c2)[C@@H](C)C1)NC(=O)[C@H]1Cc2ccc(O)cc2CN1C(=O)CN(C)C [Compound 17, (3R)-2-(N,N-Dimethylglycyl)-7-hydroxy-N-((1S)-1-{[(3R,4R)-4-(3-hydroxyphenyl)-3,4-dimethyl-1-piperidinyl]methyl}-2-methylpropyl)-1,2,3,4-tetrahydro-3-isoquinolinecarboxamide]
- Ki (mu opioid receptor [5]): 164 ± 10.5 nM
- δ/κ (kappa opioid receptor [9]): >219
- μ/κ (kappa opioid receptor [9]): 11
- Ki (kappa opioid receptor [8]): 15 ± 1.2 nM
- Ki (delta opioid receptor [3]; [10]): > 3400 nM

SMILES: CC(C)[C@@H](CN1CC[C@@](C)(c2cccc(O)c2)[C@@H](C)C1)NC(=O)[C@@H]1Cc2ccc(O)cc2CN1C [Compound 18, (3S)-7-Hydroxy-N-((1S)-1-{[(3R,4R)-4-(3-hydroxyphenyl)-3,4-dimethyl-1-piperidinyl]methyl}-2-methylpropyl)-2-methyl-1,2,3,4-tetrahydro-3-isoquinolinecarboxamide]
- Ki (mu opioid receptor [5]): 37 ± 1.4 nM
- δ/κ (kappa opioid receptor [9]): 11622
- μ/κ (kappa opioid receptor [9]): 700
- potency relative to the reference compound nor-BNI (6) (kappa opioid receptor [8]; opioid receptor binding data, kappa): 20 fold
- Ki (delta opioid receptor [3]; [10]): 616 ± 59 nM

SMILES: CC(C)[C@@H](CN1CC[C@@](C)(c2cccc(O)c2)[C@@H](C)C1)NC[C@H]1Cc2ccc(O)cc2CN1 [Compound 19, (3R)-3-{[((1S)-1-{[(3R,4R)-4-(3-Hydroxyphenyl)-3,4-dimethyl-1-piperidinyl]methyl}-2-methylpropyl)amino]methyl}-1,2,3,4-tetrahydro-7-isoquinolinol]
- Ki (kappa opioid receptor [8]): 0.63 ± 0.05 nM
- Ki (delta opioid receptor [3]; read-out: K1 (nM ± SD) δ [3H]DADLE): 5570 ± 713 nM

SMILES: CC(C)[C@@H](CN1CC[C@@](C)(c2cccc(O)c2)[C@@H](C)C1)NC[C@H]1Cc2ccc(O)cc2CN1C [Compound 20, (3R)-3-{[((1S)-1-{[(3R,4R)-4-(3-Hydroxyphenyl)-3,4-dimethyl-1-piperidinyl]methyl}-2-methylpropyl)amino]methyl}-2-methyl-1,2,3,4-tetrahydro-7-isoquinolinol]
- Ki (mu opioid receptor [5]): 59 ± 2.5 nM
- δ/κ (kappa opioid receptor [9]): 4056
- μ/κ (kappa opioid receptor [9]): 107
- Ki (kappa opioid receptor [8]): 0.55 ± 0.04 nM
- Ki (delta opioid receptor [3]; [11]): 2230 ± 187 nM

SMILES: CC(C)[C@@H](CN1CC[C@](C)(c2cccc(O)c2)[C@H](C)C1)NC(=O)[C@H]1Cc2ccc(O)cc2CN1 [Compound 21, (3R)-7-Hydroxy-N-((1S)-1-{[(3S,4S)-4-(3-hydroxyphenyl)-3,4-dimethyl-1-piperidinyl]methyl}-2-methylpropyl)-1,2,3,4-tetrahydro-3-isoquinolinecarboxamide]
- Ki (mu opioid receptor [5]): 138 ± 8 nM
- Ki (kappa opioid receptor [8]): 17.5 ± 2.5 nM
- Ki (delta opioid receptor [3]; [11]): 144 ± 15 nM
